For one compound, Triple point temperature results are on record in the NIST ThermoML archive (doi:10.1021/acs.jced.5b00488).

For this data set the following is noted: Crystal; visual observation.

Numbers after ± are expanded uncertainties.

As for `CC(COCc1ccc(O)c2ncccc12)(COCc1ccc(O)c2ncccc12)COCc1ccc(O)c2ncccc12`, the Triple point temperature is on record as 468.15 ± 4 K.
